In US7101878B1 (Agouron Pharmaceuticals, Inc., priority 1998, dated 2006):

target: T1, mouse GnRH receptor (Mus musculus, UniProt Q01776); experiment: Radioligand binding, 125I-GnRH-A, 293 cells expressing mouse GnRH receptors; settings: 10 uM; read-out: % Inhib. @ 10 uM mGnRH
T1 construct: expressed in transfected cells; host or cells: 293 cells
T1 sequence (Q01776 1-327): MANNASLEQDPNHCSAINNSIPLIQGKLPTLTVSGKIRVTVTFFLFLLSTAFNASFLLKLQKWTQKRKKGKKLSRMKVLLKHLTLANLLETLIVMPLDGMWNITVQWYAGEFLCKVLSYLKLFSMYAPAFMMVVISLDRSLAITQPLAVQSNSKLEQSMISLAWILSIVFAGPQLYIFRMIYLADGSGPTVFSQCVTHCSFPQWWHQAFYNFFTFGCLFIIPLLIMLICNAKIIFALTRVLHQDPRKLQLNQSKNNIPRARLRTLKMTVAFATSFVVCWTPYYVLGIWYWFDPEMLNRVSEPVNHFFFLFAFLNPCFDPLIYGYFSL
Procedure, shortened: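 Bound label captured on 0.1% polyethyleneimine-treated GF/C filters, washed three times with PBS, counted. IC50 derived; identical set-up for every species.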

| inhibition at 10 µM | Compound |
| --- | --- |
| 88% | CCOC(=O)CC(C)NC(=O)c1ccc(Cc2cc3c(cc2C)C(C)(C)CCC3(C)C)o1 (centres unmarked) |
| 66% | Cc1cc2c(cc1Cc1ccc(C(=O)NC(C)(C)CC(C)(C)C)o1)C(C)(C)CCC2(C)C [drawing 1577] |
| 98% | CCN(CC)CCN1CCN(C(=O)c2ccc(Cc3cc4c(cc3C)C(C)(C)CCC4(C)C)o2)CC1 |
| 100% | CCC1CCCCN1C(=O)c1ccc(Cc2cc3c(cc2C)C(C)(C)CCC3(C)C)o1 (centres unmarked) |
| 89% | Cc1cc2c(cc1Cc1ccc(C(=O)N(C)C3CCN(C)C3)o1)C(C)(C)CCC2(C)C (centres unmarked) |
| 29% | COc1cc2c(cc1OC)C(c1ccccc1)N(C(=O)c1ccc(Cc3cc4c(cc3C)C(C)(C)CCC4(C)C)o1)CC2 (centres unmarked) |
| 46% | Cc1cc2c(cc1Cc1ccc(C(=O)N3CCc4ccccc4C3Cc3ccccc3)o1)C(C)(C)CCC2(C)C (centres unmarked) [drawing 1515] |
| 67% | Cc1cc2c(cc1Cc1ccc(C(=O)N3CCC(O)(Cc4ccccc4)CC3)o1)C(C)(C)CCC2(C)C |
| 63% | Cc1cc2c(cc1Cc1ccc(C(=O)N3CCC(C(=O)c4ccc(F)cc4)CC3)o1)C(C)(C)CCC2(C)C [drawing 1467] |
| 97% | Cc1cc2c(cc1Cc1ccc(C(=O)N(Cc3cccnc3)CC(C)c3ccccc3)o1)C(C)(C)CCC2(C)C (centres unmarked) |
| 58% | CCCCC(CC)COCCCNC(=O)c1ccc(Cc2cc3c(cc2C)C(C)(C)CCC3(C)C)o1 (centres unmarked) |
| 60% | Cc1cc2c(cc1Cc1ccc(C(=O)N3CCC(NC(=O)C(F)(F)F)C3)o1)C(C)(C)CCC2(C)C (centres unmarked) [drawing 1578] |
| 97% | CSCCNC(=O)c1ccc(Cc2cc3c(cc2C)C(C)(C)CCC3(C)C)o1 [drawing 1587] |
| 100% | Cc1cc2c(cc1Cc1ccc(C(=O)N(C)C3CCCC3)o1)C(C)(C)CCC2(C)C |
| 52% | Cc1ccc(N2CCN(C(=O)c3ccc(Cc4cc5c(cc4C)C(C)(C)CCC5(C)C)o3)CC2)c(C)c1 [drawing 1455] |
| 65% | COc1cc(OC)cc(N2CCN(C(=O)c3ccc(Cc4cc5c(cc4C)C(C)(C)CCC5(C)C)o3)CC2)c1 [drawing 1576] |
| 81% | COCCN1CCN(C(=O)c2ccc(Cc3cc4c(cc3C)C(C)(C)CCC4(C)C)o2)CC1 |
| 35% | Cc1cc2c(cc1Cc1ccc(C(=O)N3CCC(c4cccc(C(F)(F)F)c4)C(O)C3)o1)C(C)(C)CCC2(C)C (centres unmarked) |
| 88% | Cc1cc2c(cc1Cc1ccc(C(=O)N3CCCCCCC3)o1)C(C)(C)CCC2(C)C [drawing 1433] |
| 55% | Cc1cc2c(cc1Cc1ccc(C(=O)NC(C)(CO)CO)o1)C(C)(C)CCC2(C)C [drawing 1444] |
| 89% | CCC(CO)NC(=O)c1ccc(Cc2cc3c(cc2C)C(C)(C)CCC3(C)C)o1 (centres unmarked) [drawing 1481] |
| 96% | Cc1cc2c(cc1Cc1ccc(C(=O)NCCCO)o1)C(C)(C)CCC2(C)C [drawing 1417] |
| 33% | Cc1cc2c(cc1Cc1ccc(C(=O)N3CCN(C(c4ccccc4)c4ccccc4)CC3)o1)C(C)(C)CCC2(C)C |

| inhibition at 10 µM | Compound |
| --- | --- |
| 96% | CCN1CCCC1CNC(=O)c1ccc(Cc2cc3c(cc2C)C(C)(C)CCC3(C)C)o1 (centres unmarked) |
| 99% | CSCCCNC(=O)c1ccc(Cc2cc3c(cc2C)C(C)(C)CCC3(C)C)o1 [drawing 1586] |
| 91% | CCCCCNC(=O)c1ccc(Cc2cc3c(cc2C)C(C)(C)CCC3(C)C)o1 |
| 88% | Cc1cc2c(cc1Cc1ccc(C(=O)NCCC(C)C)o1)C(C)(C)CCC2(C)C |
| 82% | Cc1cc2c(cc1Cc1ccc(C(=O)N3CCC(C)CC3)o1)C(C)(C)CCC2(C)C [drawing 1493] |
| 31% | Cc1cc2c(cc1Cc1ccc(C(=O)N3CCCC3C(O)(c3ccccc3)c3ccccc3)o1)C(C)(C)CCC2(C)C (centres unmarked) |
| 23% | Cc1ccc(CN(CCc2ccc(Cl)cc2Cl)C(=O)c2ccc(Cc3cc4c(cc3C)C(C)(C)CCC4(C)C)o2)cc1 |
| 102% | CCN(CC)CCCC(C)N(Cc1ccc(F)cc1)C(=O)c1ccc(Cc2cc3c(cc2C)C(C)(C)CCC3(C)C)o1 (centres unmarked) |
| 98% | Cc1cc2c(cc1Cc1ccc(C(=O)N3CCCC(C)(C)C3)o1)C(C)(C)CCC2(C)C [drawing 1523] |
| 36% | Cc1cc2c(cc1Cc1ccc(C(=O)N3CCN(c4ccccc4O)CC3)o1)C(C)(C)CCC2(C)C |
| 13% | Cc1cc2c(cc1Cc1ccc(C(=O)NC3CCCCC3C3CCCCC3)o1)C(C)(C)CCC2(C)C (centres unmarked) |
| 81% | CCN(CCO)C(=O)c1ccc(Cc2cc3c(cc2C)C(C)(C)CCC3(C)C)o1 [drawing 1451] |
| 104% | Cc1cc2c(cc1Cc1ccc(C(=O)NCCC3OCCO3)o1)C(C)(C)CCC2(C)C [drawing 1591] |
| 75% | COc1cccc(CN(Cc2cccc(Oc3cccc(C(F)(F)F)c3)c2)C(=O)c2ccc(Cc3cc4c(cc3C)C(C)(C)CCC4(C)C)o2)c1OC [drawing 1307] |
| 66% | CCCN(Cc1ccc([N+](=O)[O-])cc1)C(=O)c1ccc(Cc2cc3c(cc2C)C(C)(C)CCC3(C)C)o1 [drawing 1480] |
| 41% | Cc1cc2c(cc1Cc1ccc(C(=O)N3CCC(CNC(=O)C(F)(F)F)CC3)o1)C(C)(C)CCC2(C)C [drawing 1308] |
| 95% | Cc1cc2c(cc1Cc1ccc(C(=O)N(CCC#N)CC3CCCO3)o1)C(C)(C)CCC2(C)C (centres unmarked) |
| 103% | Cc1cc2c(cc1Cc1ccc(C(=O)N3CCCCC3CCN3CCCCC3)o1)C(C)(C)CCC2(C)C (centres unmarked) |
| 65% | Cc1cc2c(cc1Cc1ccc(C(=O)N3CCN(Cc4ccc(C(C)(C)C)cc4)CC3)o1)C(C)(C)CCC2(C)C [drawing 1534] |
| 91% | Cc1cc2c(cc1Cc1ccc(C(=O)N(Cc3ccncc3)Cc3ccc4c(c3)OCO4)o1)C(C)(C)CCC2(C)C |
| 73% | CCC(C)CNC(=O)c1ccc(Cc2cc3c(cc2C)C(C)(C)CCC3(C)C)o1 (centres unmarked) [drawing 1499] |
| 94% | CCN(CC)CCNC(=O)c1ccc(Cc2cc3c(cc2C)C(C)(C)CCC3(C)C)o1 [drawing 1506] |

same assay, conditions: 1 h, substrate remaining; 10 uM compound; closer to zero = closer to 100% inhibition; read-out: S%R 10 uM mGnRHR

| remaining activity at 10 µM | Compound |
| --- | --- |
| 30% | Cc1cc2c(cc1Cc1ccc(C(=O)NC3CCCCC3Nc3nccc(NCC4CCCO4)n3)o1)C(C)(C)CCC2(C)C (centres unmarked) [Compound 466] |
| 17% | Cc1cc2c(cc1Cc1ccc(C(=O)N3CC(C)OC(C)C3)o1)C(C)(C)CCC2(C)C (centres unmarked) [Compound 592] |
| -2% | COc1cc(CNC(=O)c2ccc(Cc3cc4c(cc3C)C(C)(C)CCC4(C)C)o2)cc(OC)c1OC [Compound 502] |
| 28% | CC(=O)N1CCCN(C(=O)c2ccc(Cc3cc4c(cc3C)C(C)(C)CCC4(C)C)o2)CC1 [Compound 599] |
| 53% | Cc1cc2c(cc1Cc1ccc(C(=O)NC(CCCNC(N)N)C(=O)O)o1)C(C)(C)CCC2(C)C (centres unmarked) [Compound 459] |
| 42% | Cc1cc2c(cc1Cc1ccc(C(=O)NCCCNCCCCNCCCN)o1)C(C)(C)CCC2(C)C [Compound 472] |
| 4% | Cc1cc2c(cc1Cc1ccc(C(=O)NCc3ccc(F)cc3)o1)C(C)(C)CCC2(C)C [Compound 604] |
| 28% | Cc1cc2c(cc1Cc1ccc(C(=O)N3CCC4(CC3)C(=O)NCN4c3ccccc3)o1)C(C)(C)CCC2(C)C [Compound 649] |
| 6% | Cc1cc2c(cc1Cc1ccc(C(=O)NCCc3c[nH]c4ccccc34)o1)C(C)(C)CCC2(C)C [Compound 470] |
| 13% | Cc1cc2c(cc1Cc1ccc(C(=O)N3CCCCCCC3)o1)C(C)(C)CCC2(C)C [Compound 563] |
| -3% | Cc1cc2c(cc1Cc1ccc(C(=O)NCC3CCC(C(=O)O)CC3)o1)C(C)(C)CCC2(C)C (centres unmarked) [Compound 479] |
| 33% | Cc1cc2c(cc1Cc1ccc(C(=O)NC3CCC(c4nccc(NCC5CCCO5)n4)C3)o1)C(C)(C)CCC2(C)C (centres unmarked) [Compound 486] |
| 4% | COC(=O)C1CCCN1C(=O)c1ccc(Cc2cc3c(cc2C)C(C)(C)CCC3(C)C)o1 (centres unmarked) [Compound 704] |
| 56% | Cc1cc2c(cc1Cc1ccc(C(=O)NCc3cccc4c3OC3C=CC=CC43)o1)C(C)(C)CCC2(C)C (centres unmarked) [Compound 518] |
| 29% | Cc1cc2c(cc1Cc1ccc(C(=O)NC(C)(C)C)o1)C(C)(C)CCC2(C)C [Compound 533] |
| -4% | Cc1cc2c(cc1Cc1ccc(C(=O)NCc3nc4ccccc4[nH]3)o1)C(C)(C)CCC2(C)C [Compound 500] |
| 57% | Cc1cc2c(cc1Cc1ccc(C(=O)N3CCCCC3C(=O)NC(c3ccccc3)c3ccccc3)o1)C(C)(C)CCC2(C)C (centres unmarked) [Compound 586] |
| -5% | Cc1cc2c(cc1Cc1ccc(C(=O)N3CCC(C(N)=O)CC3)o1)C(C)(C)CCC2(C)C [Compound 463] |
| 42% | Cc1cc2c(cc1Cc1ccc(C(=O)N3CCC(C(=O)c4ccccc4)CC3)o1)C(C)(C)CCC2(C)C [Compound 542] |
| 23% | CC[C@H](C)C(CO)NC(=O)c1ccc(Cc2cc3c(cc2C)C(C)(C)CCC3(C)C)o1 (some centres unmarked) [Compound 683] |
| -6% | Cc1cc2c(cc1Cc1ccc(C(=O)NCCCN(C)CCCN)o1)C(C)(C)CCC2(C)C [Compound 496] |
| 21% | Cc1cc2c(cc1Cc1ccc(C(=O)N(Cc3cccnc3)Cc3cccc(C(F)(F)F)c3)o1)C(C)(C)CCC2(C)C [Compound 551] |
| 16% | Cc1cc2c(cc1Cc1ccc(C(=O)N3CCC(n4c(=O)[nH]c5ccccc54)CC3)o1)C(C)(C)CCC2(C)C [Compound 670] |
